Assay results taken from patent US12187684B2, “Benzimidazole derivatives as modulators of retinoid-related orphan receptor gamma (RORγ) and pharmaceutical use thereof” (Jiangsu Hengrui Medicine Co., Ltd., priority 2018, dated 2025).

Legend:
[1] = tested on: IL-17 production, human PBMC cells; assay: IL-17 production assay using human PBMC; type: cell-based; settings: human PBMC stimulated by cytostim for 3 days, IL-17 ELISA of supernatant
Source text: Test Example 2. IL-17 Production Assay Using Human PBMC
• 1. Human PBMC cells (Cat No. 70025.1, Zenbio) • 2. Lymphocyte medium (Cat No. LYMPH-1, Zenbio) • 3. TexMACS (Cat No. 130-097-196, Miltenyi) • 4. Cytostim-human (Cat No. 1130-092-173, Miltenyi) • 5. Human IL-17 ELISA (Cat No. D1700, R&D systems) • 6. Tecan Infinite M1000 plate reader (Tecan)
Experimental Procedure for IL-17 Production Assay
Cryopreserved peripheral blood human mononuclear cells (PBMCs) were rapidly thawed in warmed Lymphocyte media, and centrifuged cell suspension at 1000 rpm for 10 minutes. The supernatant was removed, and the cell pellets were gently resuspended in TexMACS media.
Human PBMC cells in TexMACS media were plated at 1×10^5 each well in triplicate. The test compounds at various concentrations or vehicle control (<0.5% DMSO) were added into cell culture. The cells were stimulated by cytostim (10 μL/mL) for 3 days in a humidified, 5% CO2 incubator at 37° C.
After incubation, the cell culture supernatant was harvested, and then removed particulates by centrifugation. Human IL-17 in the supernatant was measured using human IL-17 ELISA kit according to the manufacturer's protocol. IC50 values were determined using GraphPad Prism by plotting the compounds concentration versus percent inhibition.

RORγ LBD-GST tagged = biological target: T1, RORγ LBD-GST tagged (Homo sapiens, UniProt P51449); assay: LanthaScreen TR-FRET RORγ coactivator assay; type: biochemical; settings: Fluorescein-D22 coactivator peptide, 1 hour room temperature
T1 construct: RORγ LBD-GST tagged (Cat No. RORC-114H, Creative Biomart); purchased Creative Biomart RORC-114H
T1 sequence (P51449 269-508 limits assumed): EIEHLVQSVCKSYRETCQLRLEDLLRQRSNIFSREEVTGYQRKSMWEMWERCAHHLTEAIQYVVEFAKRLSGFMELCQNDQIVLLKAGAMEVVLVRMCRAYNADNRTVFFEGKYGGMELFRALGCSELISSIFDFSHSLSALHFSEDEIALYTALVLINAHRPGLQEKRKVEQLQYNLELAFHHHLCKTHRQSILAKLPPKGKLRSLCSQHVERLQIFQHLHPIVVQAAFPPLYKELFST
Summary of the method: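 GST-tagged RORγ LBD (25 ng/reaction) was incubated in coregulator buffer D with 5 mM DTT and compound (top 3 μM, 7-fold steps, 7 doses), then with a mix containing 0.6 μM fluorescein-D22 peptide and 8 nM Tb anti-GST antibody. After 1 h at room temperature in the dark, 520/495 nm TR-FRET was read. IC50 came from log concentration versus percent inhibition.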

Compound | IC50 ([1]; Homo sapiens, PBMC, 72 h) [µM] | IC50 (RORγ LBD-GST tagged) [µM] | IC50 [1] [µM]
O=S(=O)(CC1CC1)c1ccc(C(CCO)c2nc3cc(Cl)c(N4CCC(F)(F)CC4)c(Cl)c3[nH]2)cc1 (single isomer, unassigned) [3-(4-((cyclopropylmethyl)sulfonyl)phenyl)-3-(5,7-dichloro-6-(4,4-difluoropiperidin-1-yl)-1H-benzo[d]imidazol-2-yl)propan-1-ol] | 0.006 | 0.003 | 
O=S(=O)(CC1CC1)c1ccc(C(CCN2CCOCC2)c2nc3cc(-c4ccccc4OC(F)F)c(Cl)cc3[nH]2)cc1 (single isomer, unassigned) [164 or 165 made from Int-164A, (R or S)-4-(3-(6-chloro-5-(2-(difluoromethoxy)phenyl)-1H-benzo[d]imidazol-2-yl)-3-(4-((cyclopropylmethyl)sulfonyl)phenyl)propyl)morpholine] | 0.28 | 1.25 | 
O=S(=O)(CC1CC1)c1ccc(C(CCN2CCOCC2)c2nc3cc(-c4ccccc4OC(F)F)c(Cl)cc3[nH]2)cc1 (single isomer, unassigned) [164 or 165 made from Int-164B, (R or S)-4-(3-(6-chloro-5-(2-(difluoromethoxy)phenyl)-1H-benzo[d]imidazol-2-yl)-3-(4-((cyclopropylmethyl)sulfonyl)phenyl)propyl)morpholine] |  | 0.418 | 0.35
CC(=O)NCCC(c1ccc(S(=O)(=O)CC2CC2)cc1)c1nc2cc(-c3ccccc3OC(F)F)c(Cl)cc2[nH]1 (single isomer, unassigned) [166 or 167 made from Int-164A, (R or S)—N-(3-(6-chloro-5-(2-(difluoromethoxy)phenyl)-1H-benzo[d]imidazol-2-yl)-3-(4-((cyclopropylmethyl)sulfonyl)phenyl)propyl)acetamide] | 0.066 | 0.01 | 
CC(=O)NCCC(c1ccc(S(=O)(=O)CC2CC2)cc1)c1nc2cc(-c3ccccc3OC(F)F)c(Cl)cc2[nH]1 (single isomer, unassigned) [166 or 167 made from Int-164B, (R or S)—N-(3-(6-chloro-5-(2-(difluoromethoxy)phenyl)-1H-benzo[d]imidazol-2-yl)-3-(4-((cyclopropylmethyl)sulfonyl)phenyl)propyl)acetamide] |  | 0.047 | 0.072
CCS(=O)(=O)c1ccc(C(CCO)c2nc3c(Cl)c(N4CCC(F)(F)CC4)c(Cl)cc3[nH]2)cc1 (single isomer, unassigned) [the shorter retention time of 139 and 140] [3-(4,6-dichloro-5-(4,4-difluoropiperidin-1-yl)-1H-benzo[d]imidazol-2-yl)-3-(4-(ethylsulfonyl)phenyl)propan-1-ol] |  |  | 0.214
CCS(=O)(=O)c1ccc(C(CC(N)=O)c2nc3c(Cl)c(N4CCC(F)(F)CC4)c(Cl)cc3[nH]2)cc1 (single isomer, unassigned) [the shorter retention time of 146 and 147] [3-(4,6-dichloro-5-(4,4-difluoropiperidin-1-yl)-1H-benzo[d]imidazol-2-yl)-3-(4-(ethylsulfonyl)phenyl)propanamide] |  |  | 0.315
CC(C)Oc1ccccc1-c1cc2nc(C(CC(N)=O)c3ccc(S(=O)(=O)CC4CC4)cc3)[nH]c2cc1Cl (single isomer, unassigned) [the shorter retention time of 148 and 149] [3-(6-chloro-5-(2-isopropoxyphenyl)-1H-benzo[d]imidazol-2-yl)-3-(4-((cyclopropylmethyl)sulfonyl)phenyl)propanamide] |  |  | 0.555
CC(C)Oc1ccccc1-c1cc2nc(C(CCO)c3ccc(S(=O)(=O)CC4CC4)cc3)[nH]c2cc1Cl (single isomer, unassigned) [the shorter retention time of 150 and 151] [3-(6-chloro-5-(2-isopropoxyphenyl)-1H-benzo[d]imidazol-2-yl)-3-(4-((cyclopropylmethyl)sulfonyl)phenyl)propan-1-ol] |  |  | 0.718
NC(=O)CC(c1ccc(S(=O)(=O)CC2CC2)cc1)c1nc2cc(-c3ccccc3OC(F)F)c(Cl)cc2[nH]1 (single isomer, unassigned) [the shorter retention time of 152 and 153] [3-(6-chloro-5-(2-(difluoromethoxy)phenyl)-1H-benzo[d]imidazol-2-yl)-3-(4-((cyclopropylmethyl)sulfonyl)phenyl)propanamide] |  |  | 0.86
O=S(=O)(CC1CC1)c1ccc(C(CCO)c2nc3cc(-c4ccccc4OC(F)F)c(Cl)cc3[nH]2)cc1 (single isomer, unassigned) [the shorter retention time of 155 and 156] [3-(6-chloro-5-(2-(difluoromethoxy)phenyl)-1H-benzo[d]imidazol-2-yl)-3-(4-((cyclopropylmethyl)sulfonyl)phenyl)propan-1-ol] |  |  | 0.135
NC(=O)CC(c1ccc(S(=O)(=O)CC2CC2)cc1)c1nc2cc(Cl)c(N3CCC(F)(F)CC3)c(Cl)c2[nH]1 (single isomer, unassigned) [the shorter retention time of 162 and 163] [3-(4-((cyclopropylmethyl)sulfonyl)phenyl)-3-(5,7-dichloro-6-(4,4-difluoropiperidin-1-yl)-1H-benzo[d]imidazol-2-yl)propanamide] |  |  | 0.069
CCS(=O)(=O)c1ccc(C(CO)c2nc3c(F)c(-c4ccccc4F)c(F)cc3[nH]2)cc1 (stereo not drawn) [Example 112, 2-(4,6-difluoro-5-(2-fluorophenyl)-1H-benzo[d]imidazol-2-yl)-2-(4-(ethylsulfonyl)phenyl)ethanol] |  | 0.076 | 
CCS(=O)(=O)c1ccc(C(O)c2nc3c(F)c(-c4ccccc4OC)c(F)cc3[nH]2)cc1 (stereo not drawn) [Example 113, (4,6-difluoro-5-(2-methoxyphenyl)-1H-benzo[d]imidazol-2-yl)(4-(ethylsulfonyl)phenyl)methanol] |  | 0.18 | 
CCS(=O)(=O)c1ccc(C(CO)c2nc3c(F)c(-c4ccccc4)c(F)cc3[nH]2)cc1 (stereo not drawn) [Example 114, 2-(4,6-difluoro-5-phenyl-1H-benzo[d]imidazol-2-yl)-2-(4-(ethylsulfonyl)phenyl)ethanol] |  | 0.564 | 
CCS(=O)(=O)c1ccc(Cc2nc3c(C)c(-c4ccccc4C(F)(F)F)c(C)cc3[nH]2)cc1 [Example 115, 2-(4-(ethylsulfonyl)benzyl)-4,6-dimethyl-5-(2-(trifluoromethyl)phenyl)-1H-benzo[d]imidazole] |  | 0.171 | 
CCS(=O)(=O)c1ccc(C(CO)c2nc3c(C)c(-c4ccccc4C(F)(F)F)c(C)cc3[nH]2)cc1 (stereo not drawn) [Example 116, 2-(4,6-dimethyl-5-(2-(trifluoromethyl)phenyl)-1H-benzo[d]imidazol-2-yl)-2-(4-(ethylsulfonyl)phenyl)ethanol] |  | 0.235 | 
CCS(=O)(=O)c1ccc(C(CO)c2nc3c(C)c(-c4ccccc4OC)c(C)cc3[nH]2)cc1 (stereo not drawn) [Example 117, 2-(4-(ethylsulfonyl)phenyl)-2-(5-(2-methoxyphenyl)-4,6-dimethyl-1H-benzo[d]imidazol-2-yl)ethanol] |  | 0.149 | 
CCS(=O)(=O)c1ccc(C(O)c2nc3c(C)c(-c4ccccc4OC)c(C)cc3[nH]2)cc1 (stereo not drawn) [Example 118, (4-(ethylsulfonyl)phenyl)(5-(2-methoxyphenyl)-4,6-dimethyl-1H-benzo[d]imidazol-2-yl)methanol] |  | 0.306 | 
CCS(=O)(=O)c1ccc(C(CO)c2nc3cc(-c4ccccc4OC(F)(F)F)c(F)cc3[nH]2)cc1 (stereo not drawn) [Example 120, 2-(4-(ethylsulfonyl)phenyl)-2-(6-fluoro-5-(2-(trifluoromethoxy)phenyl)-1H-benzo[d]imidazol-2-yl)ethanol] |  | 0.321 | 
CCS(=O)(=O)c1ccc(C(O)c2nc3cc(-c4ccccc4OC(F)(F)F)c(F)cc3[nH]2)cc1 (stereo not drawn) [Example 121, (4-(ethylsulfonyl)phenyl)(6-fluoro-5-(2-(trifluoromethoxy)phenyl)-1H-benzo[d]imidazol-2-yl)methanol] |  | 0.966 | 
O=S(=O)(NC1CC1)c1ccc(Cc2nc3c(Cl)c(-c4ccccc4OC(F)(F)F)c(Cl)cc3[nH]2)cc1 [Example 122, N-cyclopropyl-4-((4,6-dichloro-5-(2-(trifluoromethoxy)phenyl)-1H-benzo[d]imidazol-2-yl)methyl)benzenesulfonamide] |  | 0.049 | 
